25 molecules from patent US20220267268A1, “NEW TRICYCLIC 5-HT2 ANTAGONISTS” (Anamar AB, priority 2019, published 2022) can be followed below.

Each structure is given as a SMILES string. Where a name gives a salt, the structure may show the parent alone. Marks after values point to notes of the source that are not given here.

The target of experiment [1] is T1, 5-HT2B receptor (Homo sapiens, UniProt P41595).
T1 construct: host or cells: CHO-K1
Kind of experiment: 5-HT2B receptor binding, ligand displacement assay, alternative (*) with 3H-mesulergine. As to conditions: * 3H-mesulergine radioligand, SB 206553 reference; for 5-HT2B receptor binding (% displacement) 1 nM: 1 nM compound; for inhibition at 0.01 µM: 10 nM compound; for 5-HT2B receptor binding (% displacement) 100 nM: 100 nM compound. The protocol:
(§1) 5-HT2B receptor binding (performed at Eurofins Panlabs Taiwan, Ltd.) to human receptor protein expressed in CHO-K1 cells was determined in a ligand displacement assay using ^3H-lysergic acid diethylamide (LSD) as radioligand and ketanserine as a standard reference compound, or alternatively*, with ^3H-mesulergine and SB 206553 as reference. Data is presented as % displacement of radioligand at indicated compound concentrations, see Table 1.

Experiment [2] deals with T1, 5-HT2B receptor. As to the kind of experiment: 5-HT2B receptor binding, ligand displacement assay with 3H-LSD radioligand. As to conditions: human receptor in CHO-K1; for inhibition at 0.001 µM: 1 nM compound; for inhibition at 0.01 µM: 10 nM compound; for inhibition at 0.1 µM: 100 nM compound. The protocol: as §1

Usually inhibition stands for the drop in the measured response relative to a control, in per cent.

T1 sequence (P41595 whole entry): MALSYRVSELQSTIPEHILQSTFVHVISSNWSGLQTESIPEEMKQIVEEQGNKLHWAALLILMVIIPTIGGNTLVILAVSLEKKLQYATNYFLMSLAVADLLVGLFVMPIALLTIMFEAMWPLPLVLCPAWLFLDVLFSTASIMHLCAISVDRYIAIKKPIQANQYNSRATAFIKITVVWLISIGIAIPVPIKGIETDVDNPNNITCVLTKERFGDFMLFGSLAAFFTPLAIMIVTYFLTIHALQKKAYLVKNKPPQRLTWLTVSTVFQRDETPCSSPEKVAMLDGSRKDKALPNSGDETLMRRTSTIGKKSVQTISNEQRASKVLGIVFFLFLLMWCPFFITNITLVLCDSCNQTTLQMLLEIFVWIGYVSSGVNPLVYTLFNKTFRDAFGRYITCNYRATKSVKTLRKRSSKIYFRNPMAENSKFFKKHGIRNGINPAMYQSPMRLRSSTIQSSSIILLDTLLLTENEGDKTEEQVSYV

With `CSc1cccc2c3c(ccc12)N(C(=N)N)CC3C` (centres unmarked) [Example 37, 1-Methyl-6-(methylthio)-1,2-dihydro-3H-benzo[e]indole-3-carboximidamide 2,2,2-trifluoroacetic acid salt], on 5-HT2B receptor [1], the “5-HT2B receptor binding (% displacement) 1 nM” value was 5* %, the inhibition at 0.01 µM turned out to be 53% and the “5-HT2B receptor binding (% displacement) 100 nM” value was 94* %.

For `CC1CN(C(=N)N)c2cnc3ccccc3c21` (centres unmarked) [Example 5, 1-Methyl-1,2-dihydro-3H-pyrrolo[2,3-c]quinoline-3-carboximidamide hydrochloride], at 5-HT2B receptor [2], the inhibition at 0.001 µM was 11%, the inhibition at 0.01 µM stood at 28% and the inhibition at 0.1 µM came out at 71%.

Regarding `CC1CN(C(=N)N)c2ccc3c(C(F)(F)F)cccc3c21` (centres unmarked) [Example 35, 1-Methyl-6-(trifluoromethyl)-1,2-dihydro-3H-benzo[e]indole-3-carboximidamide 2,2,2-trifluoroacetic acid salt], at 5-HT2B receptor [1], the “5-HT2B receptor binding (% displacement) 1 nM” value is 21%, the inhibition at 0.01 µM is 52% and the “5-HT2B receptor binding (% displacement) 100 nM” value is listed as 91%. For the same molecule, at 5-HT2B receptor [2], the inhibition at 0.001 µM was found to be 11%, the inhibition at 0.01 µM is 61% and the inhibition at 0.1 µM was 92%.

`CC1CN(C(=N)NCc2ccc(F)cc2)c2ccc3c(Br)cccc3c21` (centres unmarked) [Example 26, 6-Bromo-N-(4-fluorobenzyl)-1-methyl-1,2-dihydro-3H-benzo[e]indole-3-carboximidamide 2,2,2-trifluoroacetic acid salt]: on 5-HT2B receptor [2], the inhibition at 0.001 µM is 43%, the inhibition at 0.01 µM was 90% and the inhibition at 0.1 µM amounted to 98%.

As to `CC1CN(C(=N)N)c2ccc3c(I)cccc3c21` (centres unmarked) [Example 34, 6-Iodo-1-methyl-1,2-dihydro-3H-benzo[e]indole-3-carboximidamide 2,2,2-trifluoroacetic acid salt], at 5-HT2B receptor [1], the “5-HT2B receptor binding (% displacement) 1 nM” value is recorded as 30* %, the inhibition at 0.01 µM is 88% and the “5-HT2B receptor binding (% displacement) 100 nM” value is recorded as 102* %.

As to `CC1CN(C(=N)N)c2ncc3ccccc3c21` (centres unmarked) [Example 4, 1-Methyl-1,2-dihydro-3H-pyrrolo[2,3-c]isoquinoline-3-carboximidamide hydrochloride], at 5-HT2B receptor [2], the inhibition at 0.001 µM is -1%, the inhibition at 0.01 µM is 16% and the inhibition at 0.1 µM worked out at 64%.

`C#Cc1cccc2c3c(ccc12)N(C(=N)N)CC3C` (centres unmarked) [Example 40, 6-Ethynyl-1-methyl-1,2-dihydro-3H-benzo[e]indole-3-carboximidamide 2,2,2-trifluoroacetic acid salt]: at 5-HT2B receptor [1], the “5-HT2B receptor binding (% displacement) 1 nM” value was 26* %, the inhibition at 0.01 µM is 64% and the “5-HT2B receptor binding (% displacement) 100 nM” value is 94* %.

On to `CCCCNC(=N)N1CC(C)c2c1ccc1ccccc21` (centres unmarked) [Example 7, N-Butyl-1-methyl-1,2-dihydro-3H-benzo[e]indole-3-carboximidamide hydrochloride], for which, on 5-HT2B receptor [2], the inhibition at 0.001 µM came out at 32%, the inhibition at 0.01 µM turned out to be 77% and the inhibition at 0.1 µM amounted to 96%.

Take `CC1CN(C(=N)NCC(F)(F)F)c2ccc3c(Br)cccc3c21` (centres unmarked) [Example 22, 6-Bromo-1-methyl-N-(2,2,2-trifluoroethyl)-1,2-dihydro-3H-benzo[e]indole-3-carboximidamide 2,2,2-trifluoroacetic acid salt]: at 5-HT2B receptor [2], the inhibition at 0.01 µM amounted to 95%.

`C#CCNC(=N)N1CC(C)c2c1ccc1c(Br)cccc21` (centres unmarked) [Example 18, 6-Bromo-1-methyl-N-(prop-2-yn-1-yl)-1,2-dihydro-3H-benzo[e]indole-3-carboximidamide 2,2,2-trifluoroacetic acid salt]: the inhibition at 0.01 µM at 5-HT2B receptor [2] came to 104%.

On to `CC1CN(C(=N)N)c2cc(F)c3c(Cl)cccc3c21` (centres unmarked) [Example 45, 6-Chloro-5-fluoro-1-methyl-1,2-dihydro-3H-benzo[e]indole-3-carboximidamide hydrochloride], for which, at 5-HT2B receptor [2], the inhibition at 0.001 µM was 77%, the inhibition at 0.01 µM is 100% and the inhibition at 0.1 µM was found to be 98%.

Consider `CC1CN(C(=N)N)c2ccc3c(S(C)(=O)=O)cccc3c21` (centres unmarked) [Example 39, 1-Methyl-6-(methylsulfonyl)-1,2-dihydro-3H-benzo[e]indole-3-carboximidamide 2,2,2-trifluoroacetic acid salt], for which, on 5-HT2B receptor [1], the “5-HT2B receptor binding (% displacement) 1 nM” value is given as 6* %, the inhibition at 0.01 µM was determined as 8% and the “5-HT2B receptor binding (% displacement) 100 nM” value is reported as 28* %.

For `CCCCNC(=N)N1CC(C)c2c1ccc1c(Br)cccc21` (centres unmarked) [Example 15, 6-Bromo-N-butyl-1-methyl-1,2-dihydro-3H-benzo[e]indole-3-carboximidamide 2,2,2-trifluoroacetic acid salt], the inhibition at 0.01 µM on 5-HT2B receptor [2] is 103%.

Turning to `COc1cc2c(c3ccccc13)C(C)CN2C(=N)N` (centres unmarked) [Example 44, 5-Methoxy-1-methyl-1,2-dihydro-3H-benzo[e]indole-3-carboximidamide hydrochloride], on 5-HT2B receptor [2], the inhibition at 0.001 µM worked out at 9%, the inhibition at 0.01 µM is 13% and the inhibition at 0.1 µM amounted to 70%.

`CC1CN(C(=N)NCc2ccc(Cl)cc2)c2ccc3ccccc3c21` (centres unmarked) [Example 9, N-(4-Chlorobenzyl)-1-methyl-1,2-dihydro-3H-benzo[e]indole-3-carboximidamide hydrochloride]: at 5-HT2B receptor [2], the inhibition at 0.001 µM came to 26%, the inhibition at 0.01 µM was 55% and the inhibition at 0.1 µM turned out to be 95%.

For `CC1CN(C(=N)N)c2ccc3c([S+](C)[O-])cccc3c21` (centres unmarked) [Example 38, 1-Methyl-6-(methylsulfinyl)-1,2-dihydro-3H-benzo[e]indole-3-carboximidamide 2,2,2-trifluoroacetic acid salt], at 5-HT2B receptor [1], the “5-HT2B receptor binding (% displacement) 1 nM” value is 4* %, the inhibition at 0.01 µM was 7% and the “5-HT2B receptor binding (% displacement) 100 nM” value was 20* %.

With `CC1CN(C(=N)NCc2ccc(F)c(F)c2)c2ccc3ccccc3c21` (centres unmarked) [Example 10, N-(3,4-Difluorobenzyl)-1-methyl-1,2-dihydro-3H-benzo[e]indole-3-carboximidamide hydrochloride], at 5-HT2B receptor [2], the inhibition at 0.001 µM was determined as 7%, the inhibition at 0.01 µM is 50% and the inhibition at 0.1 µM turned out to be 91%.

Take `COc1cccc2c3c(ccc12)N(C(=N)N)CC3C` (centres unmarked) [Example 36, 6-Methoxy-1-methyl-1,2-dihydro-3H-benzo[e]indole-3-carboximidamide 2,2,2-trifluoroacetic acid salt]: at 5-HT2B receptor [1], the “5-HT2B receptor binding (% displacement) 1 nM” value was 10* %, the inhibition at 0.01 µM worked out at 48% and the “5-HT2B receptor binding (% displacement) 100 nM” value is 90* %.

Regarding `CCCc1cccc2c3c(ccc12)N(C(=N)N)CC3C` (centres unmarked) [Example 43, 1-Methyl-6-propyl-1,2-dihydro-3H-benzo[e]indole-3-carboximidamide hydrochloride], on 5-HT2B receptor [2], the inhibition at 0.001 µM came to 21%, the inhibition at 0.01 µM was 70% and the inhibition at 0.1 µM was found to be 96%.

Regarding `COCCNC(=N)N1CC(C)c2c1ccc1c(Br)cccc21` (centres unmarked) [Example 23, 6-Bromo-N-(2-methoxyethyl)-1-methyl-1,2-dihydro-3H-benzo[e]indole-3-carboximidamide 2,2,2-trifluoroacetic acid salt], the inhibition at 0.01 µM at 5-HT2B receptor [2] amounted to 100%.

As to `CC1CN(C(=N)N)c2ccc3c(-c4ccccc4)cccc3c21` (centres unmarked) [Example 41, 1-Methyl-6-phenyl-1,2-dihydro-3H-benzo[e]indole-3-carboximidamide hydrochloride], at 5-HT2B receptor [2], the inhibition at 0.001 µM came to 0%, the inhibition at 0.01 µM is 7% and the inhibition at 0.1 µM came to 40%.

Turning to `CC1CN(C(=N)Nc2ccc(F)cc2)c2ccc3c(Br)cccc3c21` (centres unmarked) [Example 30, 6-Bromo-N-(4-fluorophenyl)-1-methyl-1,2-dihydro-3H-benzo[e]indole-3-carboximidamide 2,2,2-trifluoroacetic acid salt], the inhibition at 0.01 µM at 5-HT2B receptor [2] came to 105%.

Take `CC1CN(C(=N)N)c2ccc3c(C4CC4)cccc3c21` (centres unmarked) [Example 42, 6-Cyclopropyl-1-methyl-1,2-dihydro-3H-benzo[e]indole-3-carboximidamide hydrochloride]: at 5-HT2B receptor [2], the inhibition at 0.001 µM stood at 1%, the inhibition at 0.01 µM was 56% and the inhibition at 0.1 µM worked out at 96%.

On to `CC1CN(C(=N)NCc2ccccc2)c2ccc3ccccc3c21` (centres unmarked) [Example 8, N-Benzyl-1-methyl-1,2-dihydro-3H-benzo[e]indole-3-carboximidamide hydrochloride], for which, at 5-HT2B receptor [2], the inhibition at 0.001 µM came out at 30%, the inhibition at 0.01 µM is 80% and the inhibition at 0.1 µM was found to be 99%.

In the case of `CNC(=N)N1CC(C)c2c1ccc1ccccc21` (centres unmarked) [Example 6, N,1-Dimethyl-1,2-dihydro-3H-benzo[e]indole-3-carboximidamide hydrochloride], at 5-HT2B receptor [2], the inhibition at 0.001 µM turned out to be 18%, the inhibition at 0.01 µM amounted to 57% and the inhibition at 0.1 µM turned out to be 93%.
